Experiment [1] has as its system P388. The experiment can be described thus: Cytotoxicity against mouse P388 cells. Format: functional. As to conditions: read-out: ED50 (the source's name).
The nature of experiment [2]: Cytotoxicity against human 9KB cells. Format: functional. To be noted: read-out: ED50 (the source's name).

The values below come from ChEMBL document CHEMBL1151367, “Catharanthus alkaloids. XXXVI. Isolation of vincaleukoblastine (VLB) and periformyline from Catharanthus trichophyllus and pericyclivine from Catharanthus roseus” (1981).

In brackets after ≈: the same amount, converted by molar mass.

For the molecule `C/C=C1/CN2CC[C@]34C(=C(C(=O)OC)[C@H]1C[C@H]23)Nc1ccccc14` [AKUAMMICINE], the EC50 in experiment [1] was found to be 1.7 µg/mL (≈ 5.27 µM); in experiment [2], 2.4 µg/mL (≈ 7.44 µM).

Turning to `CC[C@]12CN3CCc4c([nH]c5ccccc45)[C@@](C(=O)OC)(c4cc5c(cc4OC)N(C)[C@H]4[C@@](O)(C(=O)OC)[C@H](OC(C)=O)[C@]6(CC)C=CCN7CC[C@]54[C@@H]76)C[C@H](C3)[C@H]1O2` [LEUROSINE], the EC50 in experiment [1] is 1.7 µg/mL (≈ 2.1 µM); in experiment [2] it was 2.4 µg/mL (≈ 2.97 µM).

Take `CC[C@]1(O)C[C@@H]2CN(CCc3c([nH]c4ccccc34)[C@@](C(=O)OC)(c3cc4c(cc3OC)N(C)[C@H]3[C@@](O)(C(=O)OC)[C@H](OC(C)=O)[C@]5(CC)C=CCN6CC[C@]43[C@@H]65)C2)C1` [VINBLASTINE]: the EC50 in experiment [1] was 1.7 µg/mL (≈ 2.1 µM); in experiment [2], 2.4 µg/mL (≈ 2.96 µM).
